{
  "source": "ChEMBL document CHEMBL3991601",
  "about": "“The target landscape of clinical kinase drugs” (Science, 2017)",
  "note": "The source made the active and inactive calls. Also: in the data inactive means no Kd found up to 30 µM.",
  "data": [
    {"target": "Serine/threonine-protein kinase/endoribonuclease IRE2 (Homo sapiens, UniProt Q76MJ5)", "sequence (Q76MJ5 whole entry)": "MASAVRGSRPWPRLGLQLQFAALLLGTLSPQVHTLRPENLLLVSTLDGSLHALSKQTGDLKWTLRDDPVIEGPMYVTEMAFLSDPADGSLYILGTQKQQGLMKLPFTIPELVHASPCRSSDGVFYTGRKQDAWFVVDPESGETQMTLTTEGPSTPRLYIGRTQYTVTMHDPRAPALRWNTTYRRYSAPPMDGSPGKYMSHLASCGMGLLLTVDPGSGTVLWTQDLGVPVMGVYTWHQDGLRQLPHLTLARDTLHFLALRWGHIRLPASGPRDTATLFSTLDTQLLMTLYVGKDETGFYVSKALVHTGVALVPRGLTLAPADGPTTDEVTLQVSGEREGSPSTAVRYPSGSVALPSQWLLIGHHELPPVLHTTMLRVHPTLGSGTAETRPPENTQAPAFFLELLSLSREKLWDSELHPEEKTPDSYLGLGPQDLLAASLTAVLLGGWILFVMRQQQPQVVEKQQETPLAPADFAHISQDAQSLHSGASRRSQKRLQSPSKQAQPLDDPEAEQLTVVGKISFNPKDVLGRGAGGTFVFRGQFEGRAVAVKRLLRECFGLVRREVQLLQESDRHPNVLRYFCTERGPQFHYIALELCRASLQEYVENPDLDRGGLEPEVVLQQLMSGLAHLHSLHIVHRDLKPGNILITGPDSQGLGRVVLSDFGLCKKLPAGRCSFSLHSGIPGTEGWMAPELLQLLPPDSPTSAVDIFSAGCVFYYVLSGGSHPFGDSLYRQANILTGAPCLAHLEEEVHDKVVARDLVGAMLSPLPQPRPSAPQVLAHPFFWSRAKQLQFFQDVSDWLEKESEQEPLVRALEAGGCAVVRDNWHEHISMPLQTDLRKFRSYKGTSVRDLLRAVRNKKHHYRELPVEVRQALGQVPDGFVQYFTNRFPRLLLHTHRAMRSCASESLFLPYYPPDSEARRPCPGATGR", "values": [
      {"smiles": "CC[C@@H]1C(=O)N(C)c2cnc(Nc3ccc(C(=O)N[C@H]4CC[C@H](N5CCN(CC6CC6)CC5)CC4)cc3OC)nc2N1C(C)C", "note": "[VOLASERTIB]", "Kd": "> 30 µM (inactive)"},
      {"smiles": "CCn1c(=O)c(-c2cc[nH]n2)cc2c(C)nc(N)nc21", "note": "[VOXTALISIB]", "Kd": "> 30 µM (inactive)"},
      {"smiles": "O=C(Nc1ccc(-c2ccnc(Nc3ccc(N4CCOCC4)cc3)n2)cc1)C1CCCN1", "note": "(centres undefined) [XL-019]", "Kd": "> 30 µM (inactive)"}
    ]},
    {"target": "RAC-alpha serine/threonine-protein kinase (Homo sapiens, UniProt P31749)", "sequence (P31749 whole entry)": "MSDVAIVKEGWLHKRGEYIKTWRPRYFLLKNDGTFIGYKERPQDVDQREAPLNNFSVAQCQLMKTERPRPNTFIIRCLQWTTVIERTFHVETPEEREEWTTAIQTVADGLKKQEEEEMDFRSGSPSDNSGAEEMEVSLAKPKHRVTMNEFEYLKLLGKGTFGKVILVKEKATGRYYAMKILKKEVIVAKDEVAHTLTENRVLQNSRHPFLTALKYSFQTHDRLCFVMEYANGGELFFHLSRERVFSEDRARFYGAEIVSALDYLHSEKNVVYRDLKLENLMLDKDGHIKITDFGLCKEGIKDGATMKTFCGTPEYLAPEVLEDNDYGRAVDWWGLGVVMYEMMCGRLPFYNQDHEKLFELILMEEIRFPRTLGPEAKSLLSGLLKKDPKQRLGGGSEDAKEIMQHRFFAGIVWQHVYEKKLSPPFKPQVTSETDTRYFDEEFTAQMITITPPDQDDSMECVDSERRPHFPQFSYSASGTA", "values": [
      {"smiles": "CC[C@@H]1C(=O)N(C)c2cnc(Nc3ccc(C(=O)N[C@H]4CC[C@H](N5CCN(CC6CC6)CC5)CC4)cc3OC)nc2N1C(C)C", "note": "[VOLASERTIB]", "Kd": "> 30 µM (inactive)"},
      {"smiles": "CCn1c(=O)c(-c2cc[nH]n2)cc2c(C)nc(N)nc21", "note": "[VOXTALISIB]", "Kd": "> 30 µM (inactive)"},
      {"smiles": "O=C(Nc1ccc(-c2ccnc(Nc3ccc(N4CCOCC4)cc3)n2)cc1)C1CCCN1", "note": "(centres undefined) [XL-019]", "Kd": "> 30 µM (inactive)"}
    ]},
    {"target": "T1, Non-receptor tyrosine-protein kinase TNK1 (Homo sapiens, UniProt Q13470)", "T1 sequence (Q13470 whole entry)": "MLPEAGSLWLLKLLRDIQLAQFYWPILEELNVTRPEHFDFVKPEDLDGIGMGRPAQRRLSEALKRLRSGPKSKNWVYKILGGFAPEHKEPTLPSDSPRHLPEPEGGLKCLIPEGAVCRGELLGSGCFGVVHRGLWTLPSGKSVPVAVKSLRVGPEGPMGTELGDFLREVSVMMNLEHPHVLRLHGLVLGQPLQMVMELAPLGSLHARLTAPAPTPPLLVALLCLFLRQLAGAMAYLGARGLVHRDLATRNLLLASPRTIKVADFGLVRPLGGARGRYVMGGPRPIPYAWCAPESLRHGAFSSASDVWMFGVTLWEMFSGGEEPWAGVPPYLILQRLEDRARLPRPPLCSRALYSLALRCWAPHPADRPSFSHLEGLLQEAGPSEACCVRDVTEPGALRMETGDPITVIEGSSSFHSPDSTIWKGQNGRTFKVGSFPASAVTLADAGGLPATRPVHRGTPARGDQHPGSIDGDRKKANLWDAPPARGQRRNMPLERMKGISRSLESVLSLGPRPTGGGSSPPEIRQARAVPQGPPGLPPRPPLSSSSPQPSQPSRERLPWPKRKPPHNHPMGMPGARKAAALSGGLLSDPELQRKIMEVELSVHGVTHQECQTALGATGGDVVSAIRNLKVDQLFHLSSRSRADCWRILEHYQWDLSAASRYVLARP", "values": [
      {"smiles": "CC[C@@H]1C(=O)N(C)c2cnc(Nc3ccc(C(=O)N[C@H]4CC[C@H](N5CCN(CC6CC6)CC5)CC4)cc3OC)nc2N1C(C)C", "note": "[VOLASERTIB]", "Kd": "> 30 µM (inactive)"},
      {"smiles": "CCn1c(=O)c(-c2cc[nH]n2)cc2c(C)nc(N)nc21", "note": "[VOXTALISIB]", "Kd": "> 30 µM (inactive)"},
      {"smiles": "O=C(Nc1ccc(-c2ccnc(Nc3ccc(N4CCOCC4)cc3)n2)cc1)C1CCCN1", "note": "(centres undefined) [XL-019]", "Kd": "> 30 µM (inactive)"}
    ]},
    {"target": "S-adenosylmethionine synthase isoform type-2 (Homo sapiens, UniProt P31153)", "sequence (P31153 whole entry, canonical isoform)": "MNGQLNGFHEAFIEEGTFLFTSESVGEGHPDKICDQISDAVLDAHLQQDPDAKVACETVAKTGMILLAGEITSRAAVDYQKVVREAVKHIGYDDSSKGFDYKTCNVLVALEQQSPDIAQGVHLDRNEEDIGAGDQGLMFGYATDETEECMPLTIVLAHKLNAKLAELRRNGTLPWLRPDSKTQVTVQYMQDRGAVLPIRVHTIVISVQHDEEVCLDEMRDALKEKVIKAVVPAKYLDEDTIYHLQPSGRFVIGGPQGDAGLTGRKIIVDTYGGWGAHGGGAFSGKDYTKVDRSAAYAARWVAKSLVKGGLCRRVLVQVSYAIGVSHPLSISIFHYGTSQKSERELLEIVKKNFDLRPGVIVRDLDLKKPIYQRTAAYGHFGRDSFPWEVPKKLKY", "values": [
      {"smiles": "CC[C@@H]1C(=O)N(C)c2cnc(Nc3ccc(C(=O)N[C@H]4CC[C@H](N5CCN(CC6CC6)CC5)CC4)cc3OC)nc2N1C(C)C", "note": "[VOLASERTIB]", "Kd": "> 30 µM (inactive)"},
      {"smiles": "CCn1c(=O)c(-c2cc[nH]n2)cc2c(C)nc(N)nc21", "note": "[VOXTALISIB]", "Kd": "> 30 µM (inactive)"},
      {"smiles": "O=C(Nc1ccc(-c2ccnc(Nc3ccc(N4CCOCC4)cc3)n2)cc1)C1CCCN1", "note": "(centres undefined) [XL-019]", "Kd": "> 30 µM (inactive)"}
    ]},
    {"target": "T2, Bone morphogenetic protein receptor type-2 (Homo sapiens, UniProt Q13873)", "T2 sequence (Q13873 whole entry)": "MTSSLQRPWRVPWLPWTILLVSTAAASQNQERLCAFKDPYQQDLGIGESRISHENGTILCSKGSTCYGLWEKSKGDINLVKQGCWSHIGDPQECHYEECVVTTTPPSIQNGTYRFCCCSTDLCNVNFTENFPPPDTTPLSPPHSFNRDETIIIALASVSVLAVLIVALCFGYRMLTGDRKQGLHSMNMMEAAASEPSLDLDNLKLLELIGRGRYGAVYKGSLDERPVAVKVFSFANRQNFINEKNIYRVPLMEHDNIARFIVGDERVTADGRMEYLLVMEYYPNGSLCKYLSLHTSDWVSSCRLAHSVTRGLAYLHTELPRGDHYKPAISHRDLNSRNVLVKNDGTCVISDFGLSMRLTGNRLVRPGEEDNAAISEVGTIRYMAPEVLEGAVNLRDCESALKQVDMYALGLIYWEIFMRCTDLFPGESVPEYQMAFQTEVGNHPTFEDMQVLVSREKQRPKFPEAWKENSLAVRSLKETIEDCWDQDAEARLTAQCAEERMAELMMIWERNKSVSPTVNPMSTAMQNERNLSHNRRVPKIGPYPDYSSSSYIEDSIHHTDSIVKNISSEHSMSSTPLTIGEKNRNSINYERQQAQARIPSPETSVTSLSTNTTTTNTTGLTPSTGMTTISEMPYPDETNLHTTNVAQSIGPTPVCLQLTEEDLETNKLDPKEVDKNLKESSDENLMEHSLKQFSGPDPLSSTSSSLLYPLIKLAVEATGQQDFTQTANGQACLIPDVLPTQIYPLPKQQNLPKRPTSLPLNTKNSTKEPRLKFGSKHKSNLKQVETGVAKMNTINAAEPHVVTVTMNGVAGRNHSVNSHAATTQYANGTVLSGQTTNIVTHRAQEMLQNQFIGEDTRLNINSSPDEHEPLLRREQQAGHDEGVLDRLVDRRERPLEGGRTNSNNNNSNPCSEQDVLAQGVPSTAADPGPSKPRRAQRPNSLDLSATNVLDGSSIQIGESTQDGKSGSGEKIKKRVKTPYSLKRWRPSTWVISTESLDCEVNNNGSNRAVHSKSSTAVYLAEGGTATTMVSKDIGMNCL", "values": [
      {"smiles": "CC[C@@H]1C(=O)N(C)c2cnc(Nc3ccc(C(=O)N[C@H]4CC[C@H](N5CCN(CC6CC6)CC5)CC4)cc3OC)nc2N1C(C)C", "note": "[VOLASERTIB]", "Kd": "> 30 µM (inactive)"},
      {"smiles": "CCn1c(=O)c(-c2cc[nH]n2)cc2c(C)nc(N)nc21", "note": "[VOXTALISIB]", "Kd": "> 30 µM (inactive)"},
      {"smiles": "O=C(Nc1ccc(-c2ccnc(Nc3ccc(N4CCOCC4)cc3)n2)cc1)C1CCCN1", "note": "(centres undefined) [XL-019]", "Kd": "> 30 µM (inactive)"}
    ]},
    {"target": "Tyrosine-protein kinase JAK1 (Homo sapiens, UniProt P23458)", "sequence (P23458 whole entry)": "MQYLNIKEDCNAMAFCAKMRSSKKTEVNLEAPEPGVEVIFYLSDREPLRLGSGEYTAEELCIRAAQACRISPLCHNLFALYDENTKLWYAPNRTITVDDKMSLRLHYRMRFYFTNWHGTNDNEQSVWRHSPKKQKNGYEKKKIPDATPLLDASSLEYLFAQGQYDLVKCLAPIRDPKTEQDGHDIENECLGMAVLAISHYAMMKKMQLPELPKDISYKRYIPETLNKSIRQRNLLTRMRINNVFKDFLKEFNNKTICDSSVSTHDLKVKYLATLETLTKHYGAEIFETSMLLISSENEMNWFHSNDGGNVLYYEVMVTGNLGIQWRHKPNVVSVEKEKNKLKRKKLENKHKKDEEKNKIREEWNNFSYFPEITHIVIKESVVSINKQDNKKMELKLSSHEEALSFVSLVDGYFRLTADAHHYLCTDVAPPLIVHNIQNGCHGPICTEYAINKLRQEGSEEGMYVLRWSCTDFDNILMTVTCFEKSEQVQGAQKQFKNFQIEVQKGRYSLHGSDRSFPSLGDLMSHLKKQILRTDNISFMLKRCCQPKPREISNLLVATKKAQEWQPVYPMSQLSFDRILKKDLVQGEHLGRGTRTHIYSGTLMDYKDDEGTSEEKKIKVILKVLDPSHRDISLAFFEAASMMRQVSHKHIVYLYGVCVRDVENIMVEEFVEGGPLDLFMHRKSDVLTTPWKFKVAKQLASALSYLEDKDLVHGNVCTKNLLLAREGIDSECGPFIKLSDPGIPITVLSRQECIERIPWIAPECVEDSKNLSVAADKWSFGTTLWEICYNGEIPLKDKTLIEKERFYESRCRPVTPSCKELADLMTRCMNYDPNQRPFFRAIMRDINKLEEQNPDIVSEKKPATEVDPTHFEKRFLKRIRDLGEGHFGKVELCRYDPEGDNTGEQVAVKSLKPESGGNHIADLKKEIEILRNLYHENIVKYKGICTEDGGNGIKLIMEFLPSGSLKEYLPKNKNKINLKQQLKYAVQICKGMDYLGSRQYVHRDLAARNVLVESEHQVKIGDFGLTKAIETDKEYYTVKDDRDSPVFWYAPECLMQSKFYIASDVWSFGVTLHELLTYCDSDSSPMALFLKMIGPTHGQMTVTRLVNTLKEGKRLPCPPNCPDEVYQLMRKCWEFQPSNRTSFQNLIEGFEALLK", "values": [
      {"smiles": "CC[C@@H]1C(=O)N(C)c2cnc(Nc3ccc(C(=O)N[C@H]4CC[C@H](N5CCN(CC6CC6)CC5)CC4)cc3OC)nc2N1C(C)C", "note": "[VOLASERTIB]", "Kd": "> 30 µM (inactive)"},
      {"smiles": "CCn1c(=O)c(-c2cc[nH]n2)cc2c(C)nc(N)nc21", "note": "[VOXTALISIB]", "Kd": "> 30 µM (inactive)"},
      {"smiles": "O=C(Nc1ccc(-c2ccnc(Nc3ccc(N4CCOCC4)cc3)n2)cc1)C1CCCN1", "note": "(centres undefined) [XL-019]", "Kd": "> 30 µM (inactive)"}
    ]},
    {"target": "T3, Phosphatidylinositol 5-phosphate 4-kinase type-2 gamma (Homo sapiens, UniProt Q8TBX8)", "T3 sequence (Q8TBX8 whole entry)": "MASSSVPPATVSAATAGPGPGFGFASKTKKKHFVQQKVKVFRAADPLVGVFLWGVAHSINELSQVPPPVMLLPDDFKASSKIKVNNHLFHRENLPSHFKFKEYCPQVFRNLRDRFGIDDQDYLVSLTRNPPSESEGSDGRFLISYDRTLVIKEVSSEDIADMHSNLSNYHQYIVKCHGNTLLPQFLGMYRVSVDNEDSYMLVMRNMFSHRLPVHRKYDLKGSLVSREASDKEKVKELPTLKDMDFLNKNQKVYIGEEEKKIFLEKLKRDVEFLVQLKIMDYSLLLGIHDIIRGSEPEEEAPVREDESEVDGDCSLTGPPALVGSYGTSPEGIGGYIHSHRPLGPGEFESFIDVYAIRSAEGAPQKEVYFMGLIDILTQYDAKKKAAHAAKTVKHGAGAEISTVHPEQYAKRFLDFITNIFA", "values": [
      {"smiles": "CC[C@@H]1C(=O)N(C)c2cnc(Nc3ccc(C(=O)N[C@H]4CC[C@H](N5CCN(CC6CC6)CC5)CC4)cc3OC)nc2N1C(C)C", "note": "[VOLASERTIB]", "Kd": "> 30 µM (inactive)"},
      {"smiles": "CCn1c(=O)c(-c2cc[nH]n2)cc2c(C)nc(N)nc21", "note": "[VOXTALISIB]", "Kd": "> 30 µM (inactive)"},
      {"smiles": "O=C(Nc1ccc(-c2ccnc(Nc3ccc(N4CCOCC4)cc3)n2)cc1)C1CCCN1", "note": "(centres undefined) [XL-019]", "Kd": "1.59 µM (active)"}
    ]},
    {"target": "T4, STE20-related kinase adapter protein alpha (Homo sapiens, UniProt Q7RTN6)", "T4 sequence (Q7RTN6 whole entry)": "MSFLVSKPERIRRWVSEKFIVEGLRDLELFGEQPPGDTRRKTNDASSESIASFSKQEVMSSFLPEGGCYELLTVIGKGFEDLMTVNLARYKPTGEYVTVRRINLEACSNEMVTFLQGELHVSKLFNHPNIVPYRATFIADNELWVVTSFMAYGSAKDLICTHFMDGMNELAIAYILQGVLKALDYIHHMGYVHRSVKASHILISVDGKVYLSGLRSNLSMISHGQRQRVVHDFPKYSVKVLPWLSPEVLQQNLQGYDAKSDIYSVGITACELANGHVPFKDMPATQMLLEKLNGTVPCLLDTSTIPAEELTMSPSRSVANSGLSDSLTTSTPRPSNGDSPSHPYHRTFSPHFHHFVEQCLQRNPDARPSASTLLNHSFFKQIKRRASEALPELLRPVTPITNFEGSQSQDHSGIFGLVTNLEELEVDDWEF", "values": [
      {"smiles": "CC[C@@H]1C(=O)N(C)c2cnc(Nc3ccc(C(=O)N[C@H]4CC[C@H](N5CCN(CC6CC6)CC5)CC4)cc3OC)nc2N1C(C)C", "note": "[VOLASERTIB]", "Kd": "> 30 µM (inactive)"},
      {"smiles": "CCn1c(=O)c(-c2cc[nH]n2)cc2c(C)nc(N)nc21", "note": "[VOXTALISIB]", "Kd": "> 30 µM (inactive)"},
      {"smiles": "O=C(Nc1ccc(-c2ccnc(Nc3ccc(N4CCOCC4)cc3)n2)cc1)C1CCCN1", "note": "(centres undefined) [XL-019]", "Kd": "> 30 µM (inactive)"}
    ]}
  ]
}
